Data on 15 compounds can be found in article PMC9031298, “Enhanced In Vitro Antiviral Activity of Hydroxychloroquine Ionic Liquids against SARS-CoV-2” (Pharmaceutics, 2022).

Series [1] is described as follows: Octanol–water partition coefficient (Kow, Log P) by UV–Vis. As to conditions: logarithm of Kow, ca. 1 mg/mL, triplicate.
For series [2], the system named is SARS-CoV-2. Particulars: for inhibition of CPE: at 10 μM, Vero E6, 72 hpi; for EC50: read-out: EC50, inhibition of virus-induced CPE; for EC90: read-out: EC90, inhibition of virus-induced CPE.
The test system of series [3] is SARS-CoV-2. Nature of the series: microbe, parasite or virus in culture. It counts as cell-based. Particulars: for EC50 / EC90: qRT-PCR; for EC50: four experiments, read-out: EC50, inhibition of vRNA transcription; for EC90: read-out: EC90, inhibition of vRNA transcription; for inhibition of vRNA transcription: at 16.7 μM, 48 hpi.
A short description of series [4]: Water solubility by stepwise addition of water until visual dissolution. Particulars: double-distilled water, 37 °C; for solubility: water, thermodynamic from solid; for Water Solubility: visual inspection.
For series [5], the system named is Vero E6 cells. As to the kind of experiment: Cell viability assay (CellTiter-Glo), cytotoxicity. As to conditions: non-infected Vero E6 cells, 72 h, mean of three experiments.
Series [6] deals with SARS-CoV-2. Nature of the series: microbe, parasite or virus in culture. It counts as cell-based. As to conditions: for EC50 / EC90: TCID50 assay; for EC50: three experiments, read-out: EC50, inhibition of production of infectious progeny viruses; for EC90: read-out: EC90, inhibition of production of infectious progeny viruses.
In series [7] the test system is Vero E6 cells.
A short description of series [8]: Critical micelle concentration by ionic conductivity. The class given is physicochemical. Particulars: 20 °C, water. How it is done: The critical micelle concentrations of the HCQ-ILs with surfactant-like anions were calculated using ionic conductivity measurements. A Crison Basic 30+ Radiometer Analytical conductivity meter was used to measure the ionic conductivities (μS/cm) of surfactant solutions in a glass cell at 20 °C containing a magnetic stirrer. For this method, a known amount of Milli-Q water was placed in a thermostated glass cell and the surfactant solution of known concentration was progressively added using a micropipette under constant stirring. Each conductivity value was measured at least three times.
The ability to form micelles of the lipophilic HCQ-ILs [DocSO3] (5) and [C12SO4] (8) was studied by ionic conductivity measurements. The inherent ability of these HCQ-ILs to self-aggregate into micelles can render adequate drug delivery properties. […] The critical micelle concentration (cmc) values, calculated by resolving both equations, are given in Table 3, alongside the cmc values for the starting halide salts (Na[DocSO3] and [C12SO4]).

For series [9] the following is noted: cited from earlier work.
The subject of series [10] is SARS-CoV-2. Nature of the series: microbe, parasite or virus in culture. As to conditions: Severe acute respiratory syndrome coronavirus 2, Vero C1008, read-out: EC90, inhibition of virus-induced CPE, Vero E6 cells, 100 TCID50, 72 hpi.
The nature of series [11]: Cell viability assay (CellTiter-Glo), cytotoxicity. As to conditions: African green monkey, Vero E6 cells (non-infected), CC50, non-infected Vero E6 cells, mean of three experiments.
The mark [12] stands for this setting: Vero E6 cells, 100 TCID50, 72 hpi.
The mark [13] stands for this setting: Severe acute respiratory syndrome coronavirus 2, Vero C1008, Vero E6, 48 hpi.

Several values for one entry are separate records, joined by “and”; a condition that tells them apart may be missing. Equal entries are not always repeated. Structures can show the parent of a compound that is named as a salt. Where two headings read alike, the source gives them in different places. Bounds are passed on as bounds.

In the case of `CCN(CCO)CCCC(C)Nc1ccnc2cc(Cl)ccc12.CS(=O)(=O)O.CS(=O)(=O)O` (centres unmarked) [compound 3, N^4-(7-chloroquinolin-4-yl)-N^1-ethyl-N^1-(2-hydroxyethyl)pentane-1,4-diaminium bis(methanesulfonate)], the lipophilicity (Log P) in series [1] is recorded as −0.22. The “inhibition of CPE” value in series [2] is recorded as 70.5%. Further, the EC50 in series [2] (setting [12]) was 8.1 µM and 8.14 µM; in [3] (Vero E6, 48 hpi), 17 µM; in series [6] (Vero E6, 48 hpi) it was 21.8 µM. Besides, the concentration for an effect of 90% (EC90) in series [2] (setting [12]) was greater than 25 µM; in series [3] (Vero E6, 48 hpi), 23.4 µM; in [6] (Vero E6, 48 hpi), 24.4 µM. Further, in [3], the “inhibition of vRNA transcription” value is listed as 48.5%. This compound displayed a solubility in series [4] of 1800 mg/mL. The midpoint of cytotoxicity in series [5], the CC50, lay at 219 µM.
`CCCCCCS(=O)(=O)O` [4a] displayed a CC50 in [7] greater than 400 µM.
With `CCCCCCCCCCCCS(=O)(=O)O.CCCCCCCCCCCCS(=O)(=O)O.CCN(CCO)CCCC(C)Nc1ccnc2cc(Cl)ccc12` (centres unmarked) [compound 8, N^4-(7-chloroquinolin-4-yl)-N^1-ethyl-N^1-(2-hydroxyethyl)pentane-1,4-diaminium bis(dodecane-1-sulfonate)], the log partition coefficient (Log P) in [1] was found to be 1.01. The compound further gave a cmc in series [8] of 4.83 µM. Also, in series [2], the EC50 was 15.8 µM and the 90% effect concentration (EC90) was determined as 23.8 µM. Further, the “Water Solubility” value in series [4] was less than 0.5 mg/mL.
Regarding `CS(=O)(=O)[O-].[K+]` [3a, potassium methanesulfonate], in series [7], the half-maximal cytotoxic concentration (CC50) is greater than 400 µM.
The compound `Cc1ccc(S(=O)(=O)[O-])cc1.[Na+]` [7a] showed a CC50 in [7] greater than 400 µM.
With `CC1(C)C2CC[C@@]1(CS(=O)(=O)[O-])C(=O)C2.[Na+]` [6a], in series [7], half-maximal cytotoxicity (CC50) was put at 142 µM.
Take `CCCCC(CC)COC(=O)CC(C(=O)OCC(CC)CCCC)S(=O)(=O)O.CCCCC(CC)COC(=O)CC(C(=O)OCC(CC)CCCC)S(=O)(=O)O.CCN(CCO)CCCC(C)Nc1ccnc2cc(Cl)ccc12` (centres unmarked) [compound 5, N^4-(7-chloroquinolin-4-yl)-N^1-ethyl-N^1-(2-hydroxyethyl)pentane-1,4-diaminium bis(1,4-bis((2-ethylhexyl)oxy)-1,4-dioxobutane-2-sulfonate)]: the log partition coefficient (Log P) in [1] came to 1.24. In series [8], the cmc worked out at 1.79 µM. Moreover, in series [2], the “SI (CC50/EC50), CPE inhibition” value stood at 7.8; the EC50 was determined as 8.9 µM; the concentration for an effect of 90% (EC90) stood at 20.9 µM. In addition, the “Water Solubility” value in series [4] is reported as less than 0.5 mg/mL. In series [5], this compound gave a 50% cytotoxic concentration (CC50) of 69.8 µM.
Consider `O=C([O-])[C@H](O)[C@@H](O)[C@H](O)[C@H](O)CO.[Na+]` [9a], for which the CC50 in series [7] was greater than 400 µM.
In the case of `CCN(CCO)CCCC(C)Nc1ccnc2cc(Cl)ccc12.Cc1ccc(S(=O)(=O)O)cc1.Cc1ccc(S(=O)(=O)O)cc1` (centres unmarked) [compound 7, N^4-(7-chloroquinolin-4-yl)-N^1-ethyl-N^1-(2-hydroxyethyl)pentane-1,4-diaminium bis(4-methylbenzenesulfonate)], the log partition coefficient (Log P) in series [1] is on record as −1.12. In [2] (setting [12]), the EC50 is 15 µM and the EC90 amounted to 21.1 µM. Moreover, the solubility in series [4] was 1400 mg/mL. Further, the midpoint of cytotoxicity in series [5], the CC50, lay at 207 µM.
On to `CCN(CCO)CCC[C@H](C)Nc1ccnc2cc(Cl)ccc12` [compound 6], for which the EC90 in [2] was greater than 25 µM. The compound further came in with a CC50 in series [5] of 73.2 µM.
On to `CCCCCCCCCCCCOS(=O)(=O)[O-].[Na+]` [8a, reference compound], for which, in series [9], the “Reference cmc (25 °C)” value was 8.0 × 10^−3 [72] M. The same compound gave a cmc in [8] of 9600 µM.
As for `CC1(C)C2CC[C@@]1(CS(=O)(=O)O)C(=O)C2.CC1(C)C2CC[C@@]1(CS(=O)(=O)O)C(=O)C2.CCN(CCO)CCCC(C)Nc1ccnc2cc(Cl)ccc12` (centres unmarked) [compound 6], the lipophilicity (Log P) in [1] is listed as −1.16. Further, the “Water Solubility” value in [4] was 2020 mg/mL.
Turning to `CCN(CCO)CCCC(C)Nc1ccnc2cc(Cl)ccc12.O=C(O)[C@@H](O)[C@H](O)[C@@H](O)[C@@H](O)CO.O=C(O)[C@@H](O)[C@H](O)[C@@H](O)[C@@H](O)CO` [compound 9, N^4-(7-chloroquinolin-4-yl)-N^1-ethyl-N^1-(2-hydroxyethyl)pentane-1,4-diaminium bis((2S,3R,4S,5S)-2,3,4,5,6-pentahydroxyhexanoate)], the “Log P” value in series [1] was −1.39. Further, the half-maximal effective concentration (EC50) came to 8.5 µM in series [2]; 16.3 µM in series [3] (Vero E6, 48 hpi); 16.9 µM in [6] (Vero E6, 48 hpi). Also, the EC90 in [2] was greater than 25 µM; in [3] (Vero E6, 48 hpi) it was 23.1 µM; in series [6] (Vero E6, 48 hpi) it was 22.5 µM. Besides, the “inhibition of vRNA transcription” value in [3] was found to be 55.8%. The “Water Solubility” value in series [4] was found to be 1230 mg/mL. In addition, the 50% cytotoxic concentration (CC50) in [5] came out at 196 µM. Besides, in series [6] (at 16.7 μM, 48 hpi), the “inhibition of production of infectious progeny” value is recorded as 56.5%.
For `CCN(CCO)CCCC(C)Nc1ccnc2cc(Cl)ccc12` (centres unmarked) [compound 1, hydroxychloroquine sulfate, reference compound], the figures for the EC90 in series [10], in [3] (setting [13]) and in series [6] (setting [13]) were 23 µM, 25.1 µM and 24.3 µM, respectively. In series [1], the log partition coefficient (Log P) was −2.25. Also, in [2], the “inhibition of CPE” value was “lower than 20%”. Also, the EC50 in series [2] (setting [12]) stood at 16.5 µM; in [3] (setting [13]), 18.6 µM; in [6] (setting [13]), 21.7 µM. In addition, the “inhibition of vRNA transcription” value in series [3] worked out at 34.0%. Moreover, the CC50 at 72 h in series [11] stood at 214 µM.
Regarding `CCCCC(CC)COC(=O)CC(C(=O)OCC(CC)CCCC)S(=O)(=O)[O-].[Na+]` (centres unmarked) [5a], the “Reference cmc (25 °C)” value in series [9] was 5.0 × 10^−3 [71] M. The compound further yielded a cmc in series [8] of 1540 µM.
